In general, pIC50 refers to the IC50 on a negative log10 scale, so that one unit is a factor of ten.

pIC50: −log10 of the molar value.

In the first test the target is Full-length inactive AKT1 (Homo sapiens, UniProt P31749). Nature of the test: Inactive Akt Alpha Screen Assay. The class given is biochemical. The conditions noted are these: values not marked with "*": AlphaScreen assay; read-out: Akt1 IC50, (AlphaScreen). As to the method: AKT1 activity was assayed using the GSK3-derived biotinylated peptide substrate, crosstide (biotin-[…]), and AlphaScreen™ (Amplified Luminescent Proximity Homogeneous Assay) technology. AKT1 activation was achieved by the addition of the activating kinases PDK1 and MAPKAPK2, lipid vesicles, and ATP. The extent of peptide phosphorylation was determined using a phospho-AKT substrate antibody and acceptor beads conjugated to Protein A and donor beads conjugated to streptavidin that bind to the biotin on the peptide. Excitation of the donor beads converted ambient oxygen to excited singlet oxygen which, when in close proximity to acceptor beads, reacted with acceptor beads resulting in signal amplification.
Chain of Full-length inactive AKT1 (P31749 whole entry): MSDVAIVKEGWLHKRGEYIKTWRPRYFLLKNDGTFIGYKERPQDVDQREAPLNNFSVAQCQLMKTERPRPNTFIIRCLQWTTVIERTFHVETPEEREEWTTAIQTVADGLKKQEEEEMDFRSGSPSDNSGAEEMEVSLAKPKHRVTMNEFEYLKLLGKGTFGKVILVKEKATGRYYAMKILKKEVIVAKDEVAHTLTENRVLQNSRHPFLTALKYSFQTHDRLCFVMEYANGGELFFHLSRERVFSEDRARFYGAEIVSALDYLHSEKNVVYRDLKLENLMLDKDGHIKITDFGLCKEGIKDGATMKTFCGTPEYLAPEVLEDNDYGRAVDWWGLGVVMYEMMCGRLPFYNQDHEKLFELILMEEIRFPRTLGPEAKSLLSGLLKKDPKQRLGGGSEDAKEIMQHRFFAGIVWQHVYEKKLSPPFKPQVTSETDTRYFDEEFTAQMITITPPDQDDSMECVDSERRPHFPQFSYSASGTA
Assay plates were incubated for 90 minutes at room temperature in the dark, and the plates were read on a Perkin Elmer Envision Multilabel plate reader (excitation wavelength: […], emission wavelength: 570 nm).
Regarding `Nc1ncccc1-c1nc2cc(Br)cnc2n1-c1ccc(CNS(=O)(=O)c2ccccc2)cc1` [Example 146, N-{4-[2-(2-aminopyridin-3-yl)-6-bromo-3H-imidazo[4,5-b]pyridin-3-yl]benzyl}benzenesulfonamide], the pIC50 is 6.38.

For the compound `Nc1ncccc1-c1nc2cc(Br)cnc2n1-c1ccc(CNS(=O)(=O)c2ccccc2Cl)cc1` [Example 147, N-{4-[2-(2-aminopyridin-3-yl)-6-bromo-3H-imidazo[4,5-b]pyridin-3-yl]benzyl}-2-chlorobenzenesulfonamide], the pIC50 is 6.36.

Take `COc1ccc(S(=O)(=O)NCc2ccc(-n3c(-c4cccnc4N)nc4cc(Br)cnc43)cc2)cc1OC` [Example 148, N-{4-[2-(2-aminopyridin-3-yl)-6-bromo-3H-imidazo[4,5-b]pyridin-3-yl]benzyl}-3,4-dimethoxybenzenesulfonamide]: the pIC50 is 6.62.

Take `COc1cccc(S(=O)(=O)NCc2ccc(-n3c(-c4cccnc4N)nc4cc(Br)cnc43)cc2)c1` [Example 149, N-{4-[2-(2-aminopyridin-3-yl)-6-bromo-3H-imidazo[4,5-b]pyridin-3-yl]benzyl}-3-methoxybenzenesulfonamide]: the pIC50 is 6.59.

`Nc1ncccc1-c1nc2cc(Br)cnc2n1-c1ccc(CNS(=O)(=O)c2ccc(F)c(Cl)c2)cc1` [Example 150, N-{4-[2-(2-aminopyridin-3-yl)-6-bromo-3H-imidazo[4,5-b]pyridin-3-yl]benzyl}-3-chloro-4-fluorobenzenesulfonamide]: the negative-log IC50 (pIC50) was 5.64.

For `Nc1ncccc1-c1nc2cc(Br)cnc2n1-c1ccc(CNS(=O)(=O)C2CCCCC2)cc1` [Example 151, N-{4-[2-(2-aminopyridin-3-yl)-6-bromo-3H-imidazo[4,5-b]pyridin-3-yl]benzyl}cyclohexanesulfonamide], the pIC50 is 6.47.

Regarding `CC(C)CS(=O)(=O)NCc1ccc(-n2c(-c3cccnc3N)nc3cc(Br)cnc32)cc1` [Example 152, N-{4-[2-(2-aminopyridin-3-yl)-6-bromo-3H-imidazo[4,5-b]pyridin-3-yl]benzyl}-2-methylpropane-1-sulfonamide], the pIC50 is 6.62.

Consider `CCCCS(=O)(=O)NCc1ccc(-n2c(-c3cccnc3N)nc3cc(Br)cnc32)cc1` [Example 153, N-{4-[2-(2-aminopyridin-3-yl)-6-bromo-3H-imidazo[4,5-b]pyridin-3-yl]benzyl}butane-1-sulfonamide], for which the pIC50 is 6.36.

With `Cc1noc(C)c1S(=O)(=O)NCc1ccc(-n2c(-c3cccnc3N)nc3cc(Br)cnc32)cc1` [Example 154, N-{4-[2-(2-aminopyridin-3-yl)-6-bromo-3H-imidazo[4,5-b]pyridin-3-yl]benzyl}-3,5-dimethylisoxazole-4-sulfonamide], the negative logarithm of the IC50 (pIC50) is 5.92.

As for `Nc1ncccc1-c1nc2cc(Br)cnc2n1-c1ccc(CNS(=O)(=O)c2cccs2)cc1` [Example 155, N-{4-[2-(2-aminopyridin-3-yl)-6-bromo-3H-imidazo[4,5-b]pyridin-3-yl]benzyl}thiophene-2-sulfonamide], the pIC50 was 6.85.

For `Nc1ncccc1-c1nc2cc(Br)cnc2n1-c1ccc(CNS(=O)(=O)c2cccc(Cl)c2)cc1` [Example 156, N-{4-[2-(2-aminopyridin-3-yl)-6-bromo-3H-imidazo[4,5-b]pyridin-3-yl]benzyl}-3-chlorobenzenesulfonamide], the pIC50 was 5.92.

The test is the same for the next values; noted with them: values not marked with "*"; read-out: Akt1 IC50, (AlphaScreen).
Consider `Nc1ncccc1-c1nc2cc(Br)cnc2n1-c1ccc(CNS(=O)(=O)c2ccc(F)cc2)cc1` [Example 158, N-{4-[2-(2-aminopyridin-3-yl)-6-bromo-3H-imidazo[4,5-b]pyridin-3-yl]benzyl}-4-fluorobenzenesulfonamide], for which the pIC50 was 6.31.

Turning to `Nc1ncccc1-c1nc2cc(Br)cnc2n1-c1ccc(CNS(=O)(=O)c2c(F)cccc2F)cc1` [Example 159, N-{4-[2-(2-aminopyridin-3-yl)-6-bromo-3H-imidazo[4,5-b]pyridin-3-yl]benzyl}-2,6-difluorobenzenesulfonamide], the pIC50 is 6.70.

Consider `Nc1ncccc1-c1nc2cc(Br)cnc2n1-c1ccc(CNS(=O)(=O)c2cccc(F)c2)cc1` [Example 160, N-{4-[2-(2-aminopyridin-3-yl)-6-bromo-3H-imidazo[4,5-b]pyridin-3-yl]benzyl}-3-fluorobenzenesulfonamide], for which the pIC50 is 6.48.

For the compound `Nc1ncccc1-c1nc2cc(Br)cnc2n1-c1ccc(CNS(=O)(=O)c2ccc3c(c2)CCO3)cc1` [Example 161, N-{4-[2-(2-aminopyridin-3-yl)-6-bromo-3H-imidazo[4,5-b]pyridin-3-yl]benzyl}-2,3-dihydro-1-benzofuran-5-sulfonamide], the pIC50 was 6.54.

In the case of `Cc1ccc(S(=O)(=O)NCc2ccc(-n3c(-c4cccnc4N)nc4cc(Br)cnc43)cc2)cc1` [Example 162, N-{4-[2-(2-aminopyridin-3-yl)-6-bromo-3H-imidazo[4,5-b]pyridin-3-yl]benzyl}-4-methylbenzenesulfonamide], the pIC50 is 6.35.

Turning to `Cc1cccc(S(=O)(=O)NCc2ccc(-n3c(-c4cccnc4N)nc4cc(Br)cnc43)cc2)c1` [Example 163, N-{4-[2-(2-aminopyridin-3-yl)-6-bromo-3H-imidazo[4,5-b]pyridin-3-yl]benzyl}-3-methylbenzenesulfonamide], the pIC50 is 6.40.

Consider `Nc1ncccc1-c1nc2cc(Br)cnc2n1-c1ccc(CNS(=O)(=O)c2cccc3cccnc23)cc1` [Example 164, N-{4-[2-(2-aminopyridin-3-yl)-6-bromo-3H-imidazo[4,5-b]pyridin-3-yl]benzyl}quinoline-8-sulfonamide], for which the pIC50 is 6.21.

With `N#Cc1ccc(S(=O)(=O)NCc2ccc(-n3c(-c4cccnc4N)nc4cc(Br)cnc43)cc2)cc1` [Example 165, N-{4-[2-(2-aminopyridin-3-yl)-6-bromo-3H-imidazo[4,5-b]pyridin-3-yl]benzyl}-4-cyanobenzenesulfonamide], the pIC50 is 5.68.

`Cn1cnc(S(=O)(=O)NCc2ccc(-n3c(-c4cccnc4N)nc4cc(Br)cnc43)cc2)c1` [Example 166, N-{4-[2-(2-aminopyridin-3-yl)-6-bromo-3H-imidazo[4,5-b]pyridin-3-yl]benzyl}-1-methyl-1H-imidazole-4-sulfonamide]: the pIC50 is 6.36.

Regarding `Cc1ccc(C)c(S(=O)(=O)NCc2ccc(-n3c(-c4cccnc4N)nc4cc(Br)cnc43)cc2)c1` [Example 167, N-{4-[2-(2-aminopyridin-3-yl)-6-bromo-3H-imidazo[4,5-b]pyridin-3-yl]benzyl}-2,5-dimethylbenzenesulfonamide], the pIC50 was 6.32.

For `Nc1ncccc1-c1nc2cc(Br)cnc2n1-c1ccc(CNS(=O)(=O)C2CC2)cc1` [Example 168, N-{4-[2-(2-aminopyridin-3-yl)-6-bromo-3H-imidazo[4,5-b]pyridin-3-yl]benzyl}cyclopropanesulfonamide], the pIC50 was 6.77.

Consider `Nc1ncccc1-c1nc2cc(Br)cnc2n1-c1ccc(CNS(=O)(=O)c2ccsc2)cc1` [Example 169, N-{4-[2-(2-aminopyridin-3-yl)-6-bromo-3H-imidazo[4,5-b]pyridin-3-yl]benzyl}thiophene-3-sulfonamide], for which the pIC50 is 6.72.

`CCS(=O)(=O)NCc1ccc(-n2c(-c3cccnc3N)nc3cc(Br)cnc32)cc1` [Example 170, N-{4-[2-(2-aminopyridin-3-yl)-6-bromo-3H-imidazo[4,5-b]pyridin-3-yl]benzyl}ethanesulfonamide]: the pIC50 is 6.31.

For `Nc1ncccc1-c1nc2cc(Br)cnc2n1-c1ccc(CNS(=O)(=O)c2ccccc2F)cc1` [Example 171, N-{4-[2-(2-aminopyridin-3-yl)-6-bromo-3H-imidazo[4,5-b]pyridin-3-yl]benzyl}-2-fluorobenzenesulfonamide], the pIC50 is 6.46.

As for `CC(C)(C)c1ccc(C(=O)NCc2ccc(-n3c(-c4cccnc4N)nc4cccnc43)cc2)cc1` [Example 172, N-{4-[2-(2-aminopyridin-3-yl)-3H-imidazo[4,5-b]pyridin-3-yl]benzyl}-4-tert-butylbenzamide], the pIC50 was 7.00.

On to `Nc1ncccc1-c1nc2cc(-c3ccc(CO)cc3)cnc2n1-c1ccc(CNC(=O)c2ccccc2)cc1` [Example 173, N-(4-{2-(2-aminopyridin-3-yl)-6-[4-(hydroxymethyl)phenyl]-3H-imidazo[4,5-b]pyridin-3-yl}benzyl)benzamide], for which the pIC50 is 7.59.

Consider `CC(=O)Nc1cccc(-c2cnc3c(c2)nc(-c2cccnc2N)n3-c2ccc(CNC(=O)c3ccccc3)cc2)c1` [Example 174, N-(4-{6-[3-(acetylamino)phenyl]-2-(2-aminopyridin-3-yl)-3H-imidazo[4,5-b]pyridin-3-yl}benzyl)benzamide], for which the pIC50 was 7.42.

As for `COc1ccc(Nc2ccc3nc(-c4cccnc4N)n(-c4ccc(CNC(=O)c5ccccc5)cc4)c3n2)cc1` [Example 175], the pIC50 is 6.22.

With `COc1ccc(NC(=O)NCc2ccc(-n3c(-c4cccnc4N)nc4cc(F)cnc43)cc2)cc1` [Example 176, 1-{4-[2-(2-aminopyridin-3-yl)-6-fluoro-3H-imidazo[4,5-b]pyridin-3-yl]benzyl}-3-(4-methoxyphenyl)urea], the pIC50 was 5.92.

As for `COc1ccc(S(=O)(=O)NCc2ccc(-n3c(-c4cccnc4N)nc4cc(Br)cnc43)cc2)cc1` [Example 177, N-{4-[2-(2-aminopyridin-3-yl)-6-bromo-3H-imidazo[4,5-b]pyridin-3-yl]benzyl}-4-methoxybenzenesulfonamide], the pIC50 is 5.68.

For `Cc1ccnc(NC(=O)c2ccc(-n3c(-c4cccnc4N)nc4cccnc43)cc2)c1` [Example 179, 4-[2-(2-aminopyridin-3-yl)-3H-imidazo[4,5-b]pyridin-3-yl]-N-(4-methylpyridin-2-yl)benzamide], the pIC50 is 6.28.

The values above are taken from US8501770B2 (ArQule, Inc., priority 2009, dated 2013).
